Usually solubility stands for how much of the substance goes into solution per volume. The residual activity is the share of the control activity or signal that is left under treatment.

Positions count from the first letter of the chain named. In brackets after ≈: the same amount, converted by molar mass. Activity calls are given as the source filed them. No cut-off for these calls is given here.

The text below walks through data of ChEMBL document CHEMBL5150044, “Macrocyclization of Quinazoline-Based EGFR Inhibitors Leads to Exclusive Mutant Selectivity for EGFR L858R and Del19” (J Med Chem, 2022).

Data set [1] relates to BaF3. The data set is described as follows: Inhibition of EGFR Del19 mutant in mouse BaF3 cells assessed as protein phosphorylation at 10 to 1000 nM incubated for 8 hrs by Western blot analysis. Type of data set: cell-based. Particulars: dose 10-1000 nM.
Data set [2] relates to BaF3. Format: cell-based. Particulars: Mus musculus, dose 10-1000 nM, time 8.0 hrs.
The subject of data set [3] is BaF3. Format: cell-based. The following applies: Mus musculus, dose 10-1000 nM, time 8.0 hrs. This is another data set of the same source.
A short description of data set [4]: Solubility in neutral aqueous solutions after 24 hrs by HPLC analysis. Format: physicochemical.
A short description of data set [5]: Solubility in 10% DMSO after 24 hrs by HPLC analysis. Format: physicochemical.
The nature of data set [6]: Solubility in 100% DMSO after 24 hrs by HPLC analysis. Type of data set: physicochemical.
Data set [7] concerns T1, Receptor-type tyrosine-protein kinase FLT3 (Homo sapiens), P36888 [D835V].
T1 sequence (whole entry): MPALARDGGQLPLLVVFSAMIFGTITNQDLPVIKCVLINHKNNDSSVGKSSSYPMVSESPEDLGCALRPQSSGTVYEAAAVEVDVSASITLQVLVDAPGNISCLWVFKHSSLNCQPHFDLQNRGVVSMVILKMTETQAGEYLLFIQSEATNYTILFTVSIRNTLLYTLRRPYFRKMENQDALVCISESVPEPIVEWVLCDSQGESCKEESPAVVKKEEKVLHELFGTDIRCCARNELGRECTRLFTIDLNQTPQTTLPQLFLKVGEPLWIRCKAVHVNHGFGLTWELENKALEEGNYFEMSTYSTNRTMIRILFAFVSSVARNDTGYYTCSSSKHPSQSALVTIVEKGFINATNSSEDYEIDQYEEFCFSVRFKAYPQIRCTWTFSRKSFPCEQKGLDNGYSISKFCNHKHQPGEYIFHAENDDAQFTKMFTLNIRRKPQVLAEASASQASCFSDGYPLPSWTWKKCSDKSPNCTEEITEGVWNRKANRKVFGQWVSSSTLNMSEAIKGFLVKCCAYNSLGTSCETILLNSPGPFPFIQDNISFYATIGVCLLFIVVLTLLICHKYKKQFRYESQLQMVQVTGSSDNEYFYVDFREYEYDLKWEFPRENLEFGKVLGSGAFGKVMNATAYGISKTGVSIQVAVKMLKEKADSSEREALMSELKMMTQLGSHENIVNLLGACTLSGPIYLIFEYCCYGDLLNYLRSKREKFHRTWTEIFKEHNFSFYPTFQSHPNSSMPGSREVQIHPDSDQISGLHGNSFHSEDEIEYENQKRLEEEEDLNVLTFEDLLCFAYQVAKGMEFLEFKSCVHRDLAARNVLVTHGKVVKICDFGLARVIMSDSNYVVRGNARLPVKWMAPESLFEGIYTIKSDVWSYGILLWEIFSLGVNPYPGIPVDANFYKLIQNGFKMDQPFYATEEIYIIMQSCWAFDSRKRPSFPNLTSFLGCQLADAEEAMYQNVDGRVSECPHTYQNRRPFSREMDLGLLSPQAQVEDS
The data set is described as follows: Inhibition of FLT3 D835V mutant (unknown origin) assessed as percent of control activity at 1 uM by radiometric protein kinase-reaction biology assay; values are per cent of control.

Data set [8] deals with T2, Receptor-type tyrosine-protein kinase FLT3 (Homo sapiens), P36888 [D835Y].
T2 sequence (whole entry): T1 sequence (whole entry) with V835Y
Kind of data set: Inhibition of FLT3 D835Y mutant (unknown origin) assessed as percent of control activity at 1 uM by radiometric protein kinase-reaction biology assay; values are per cent of control.

For data set [9], the species on record is Homo sapiens. Kind of data set: Inhibition of EGFR […] mutant (unknown origin) assessed as percent of control activity at 1 uM by radiometric protein kinase-reaction biology assay; values are per cent of control.
Data set [10] relates to Receptor-type tyrosine-protein kinase FLT3 (Homo sapiens), P36888 [UNDEFINED MUTATION]. The data set is described as follows: Inhibition of FLT3 ITD/D835V mutant (unknown origin) assessed as percent of control activity at 1 uM by radiometric protein kinase-reaction biology assay; values are per cent of control.

Turning to `COc1cc2ncnc3c2cc1OCCOCCOc1cc(F)c(Cl)cc1N3`, the inhibition result in data set [1], in data set [2] and in data set [3] was “Active” in each case. In addition, the solubility at 24 h is 0.131 µg/mL (≈ 0.323 µM) in [4] and 0.283 µg/mL (≈ 0.697 µM) in data set [5]. The compound further registered a solubility in data set [6] of 2.592 mg/mL (≈ 6390 µM). Besides, the residual activity stood at 5% in data set [7], 25% in [8], 26% in [9] and 33% in data set [10].
